Data published in US20240025841A1, “METHOD FOR OBTAINING CRYSTALLINE DIETHYLAMINO HYDROXYBENZOYL HEXYL BENZOATE” (BASF SE, priority 2020, published 2024).

Assay: Equilibrium solubility of (I) in 1-hexanol at different temperatures
Type: physicochemical
Details: equilibrium solubility in 1-hexanol
Protocol: The equilibrium solubility of (I) in 1-hexanol at different temperatures was determined using a double jacketed 750 mL crystallizer. A mixture of (I) and 1-hexanol in the crystallizer was heated to a target temperature and the equilibrium condition was allowed to establish at that temperature. Samples from the solid free mother liquor were drawn using a filter frit. The samples were analysed for (I) content.
The results are shown in […].1 and are plotted in FIG. 1.

(I) concentration (0 °C): 3.8% | (I) concentration (4 °C): 4.3% | (I) concentration (7 °C): 5.4% | (I) concentration (8 °C): 5.3% | (I) concentration (12 °C): 6.2% | (I) concentration (13.7 °C): 8.6% | (I) concentration (16 °C): 7.6% | (I) concentration (20 °C): 8.8% | (I) concentration (25 °C): 12.3% | (I) concentration (28.3 °C): 17.6% | (I) concentration (30 °C): 19.0% | (I) concentration (35 °C): 40.0% | (I) concentration (−0.9 °C): 3.4%
Compound: CCCCCCOC(=O)c1ccccc1C(=O)c1ccc(N(CC)CC)cc1O [(I), 2-(4′-Diethylamino-2′-hydroxybenzoyl)benzoic acid hexyl ester]
